Test results: US20250154173A1 (Merck Sharp & Dohme LLC, priority 2023, published 2025)
pEC50: −log10 of the molar value.

Molecular target: T1, GST-RIPK1 (recombinant GST-RIPK1 kinase domain (residues 1-327)) (Homo sapiens, UniProt Q13546)
T1 construct: recombinant GST-RIPK1 kinase domain (residues 1-327) enzyme produced from baculovirus-transfected Sf21 cells; host or cells: baculovirus-transfected Sf21 insect cells
T1 sequence (Q13546 1-327): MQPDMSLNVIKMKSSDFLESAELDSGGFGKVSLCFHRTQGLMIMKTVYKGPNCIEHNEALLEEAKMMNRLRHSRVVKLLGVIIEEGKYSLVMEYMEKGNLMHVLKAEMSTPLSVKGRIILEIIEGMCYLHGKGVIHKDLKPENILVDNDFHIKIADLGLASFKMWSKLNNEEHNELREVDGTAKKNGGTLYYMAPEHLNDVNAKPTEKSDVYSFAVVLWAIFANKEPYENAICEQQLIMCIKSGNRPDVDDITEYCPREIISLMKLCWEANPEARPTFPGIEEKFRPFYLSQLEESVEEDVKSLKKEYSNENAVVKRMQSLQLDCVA
Experiment: RIPK1-ADP-Glo Enzymatic Assay
Type: biochemical
Conditions: ten-point titration, top compound concentration of 100000 nM; 25 nM GST-RIPK1, 300 μM ATP, 3 μM dephosphorylated-MBP; 30 min pre-incubation, 150 min reaction
Method in brief: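 GST-RIPK1 kinase domain (residues 1-327, Sf21-expressed), 25 nM, preincubated 30 min with compound, then reacted 150 min with 300 μM ATP and 3 μM dephosphorylated MBP in pH 7.3 Hepes buffer, 1% DMSO. ADP measured by ADP-Glo luminescence; EC50 from ten-point titration (top 100000 nM), four-parameter fit.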

Compound | pEC50
O=C1N2[C@@H](CC[C@H]2c2cncc(F)c2)OC12CCC(OCc1ccccc1)CC2 (single isomer, unassigned) [Example 2.1, ((1r or s),4R,5′S,7a′R)-4-(benzyloxy)-5′-(5-fluoropyridin-3-yl)tetrahydro-3′H-spiro[cyclohexane-1,2′-pyrrolo[2,1-b]oxazol]-3′-one] | 5.95
O=C1N2[C@@H](CC[C@H]2c2cncc(F)c2)OC12CCC(Oc1ccccc1)CC2 (single isomer, unassigned) [Example 16.4, (1s or r), (5′S,7a′R)-5′-(5-fluoropyridin-3-yl)-4-phenoxytetrahydro-3′H-spiro[cyclohexane-1,2′-pyrrolo[2,1-b]oxazol]-3′-one] | 6.32
O=C1N2[C@@H](CC[C@H]2c2cc(F)cc(F)c2)O[C@]12C[C@H](Oc1nccc3ncnn13)C2 [Example 9.23, (1r,3R,5′S,7a′R)-5′-(3,5-difluorophenyl)-3-[([1,2,4]triazolo[1,5-c]pyrimidin-5-yl)oxy]tetrahydro-3′H-spiro[cyclobutane-1,2′-pyrrolo[2,1-b][1,3]oxazol]-3′-one] | 7.26
O=C1N2[C@@H](CC[C@H]2c2ccc(F)cc2)O[C@]12C[C@H](Oc1cc(-c3nn[nH]n3)ccn1)C2 [Example 10.7, (1r,3R,5′S,7a′R)-3-((4-(2H-tetrazol-5-yl)pyridin-2-yl)oxy)-5′-(4-fluorophenyl)tetrahydro-3′H-spiro[cyclobutane-1,2′-pyrrolo[2,1-b]oxazol]-3′-one] | 7.57
O=C1N2[C@@H](CC[C@H]2c2ncccc2F)OC12CC(Oc1ncnn3cccc13)C2 (stereo partly drawn) [Example 9.62, (5′S,7a′R)-5′-(3-fluoropyridin-2-yl)-3-[(pyrrolo[2,1-f][1,2,4]triazin-4-yl)oxy]tetrahydro-3′H-spiro[cyclobutane-1,2′-pyrrolo[2,1-b][1,3]oxazol]-3′-one] | 7.99
O=C1N2[C@@H](CC[C@H]2c2cnccn2)O[C@]12C[C@@H](Oc1ccc(F)cc1F)C2 [Example 7.2, (1s,3S,5′S,7a′R)-3-(2,4-difluorophenoxy)-5′-(pyrazin-2-yl)tetrahydro-3′H-spiro[cyclobutane-1,2′-pyrrolo[2,1-b]oxazol]-3′-one] | 7.74
Cc1nc2c(OC3CC4(C3)O[C@@H]3CC[C@@H](c5cc(F)cc(F)c5)N3C4=O)ncnc2s1 (stereo partly drawn) [Example 9.7, (5′S,7a′R)-5′-(3,5-difluorophenyl)-3-[(2-methyl[1,3]thiazolo[5,4-d]pyrimidin-7-yl)oxy]tetrahydro-3′H-spiro[cyclobutane-1,2′-pyrrolo[2,1-b][1,3]oxazol]-3′-one] | 6.70
O=C1N2[C@@H](CC[C@H]2c2ccccc2)OC12CC(Oc1ccnn3cccc13)C2 (stereo partly drawn) [Example 8.21, (5′S,7a′R)-5′-phenyl-3-[(pyrrolo[1,2-b]pyridazin-4-yl)oxy]tetrahydro-3′H-spiro[cyclobutane-1,2′-pyrrolo[2,1-b][1,3]oxazol]-3′-one] | 7.41
O=C1N2[C@@H](CC[C@H]2c2ccc(F)cc2)O[C@]12C[C@H](Oc1ccnn3cccc13)C2 [Example 8.22, (1r,3R,5′S,7a′R)-5′-(4-fluorophenyl)-3-(pyrrolo[1,2-b]pyridazin-4-yloxy)tetrahydro-3′H-spiro[cyclobutane-1,2′-pyrrolo[2,1-b]oxazol]-3′-one] | 7.54

Results, then the molecule that gave them:

pEC50 | Compound
6.14 | N#CC1(c2ccc(COC3CC4(C3)OC3CC[C@@H](c5cnccn5)N3C4=O)cn2)CCC1 (stereo partly drawn) [Example 18.78, 1-[5-({[(5′S)-3′-oxo-5′-(pyrazin-2-yl)tetrahydro-3′H-spiro[cyclobutane-1,2′-pyrrolo[2,1-b][1,3]oxazol]-3-yl]oxy}methyl)pyridin-2-yl]cyclobutane-1-carbonitrile]
7.35 | O=C1N2C(CC[C@H]2c2cnccn2)OC12CC(OCc1ccc(-c3ccon3)cc1)C2 (stereo partly drawn) [Example 18.80, (5′S)-3-{[4-(1,2-oxazol-3-yl)phenyl]methoxy}-5′-(pyrazin-2-yl)tetrahydro-3′H-spiro[cyclobutane-1,2′-pyrrolo[2,1-b][1,3]oxazol]-3′-one]
6.01 | O=C1N2C(CC[C@H]2c2cnccn2)OC12CC(OCc1cnn(C3CC3)c1)C2 (stereo partly drawn) [Example 18.3, (5′S)-3-[(1-cyclopropyl-1H-pyrazol-4-yl)methoxy]-5′-(pyrazin-2-yl)tetrahydro-3′H-spiro[cyclobutane-1,2′-pyrrolo [2,1-b][1,3]oxazol]-3′-one]
7.82 | Cn1nccc1-c1cccc(OC2CC3(C2)O[C@@H]2CC[C@@H](c4cnccn4)N2C3=O)c1 (stereo partly drawn) [Example 19.13, (5′S,7a′R)-3-[3-(1-methyl-1H-pyrazol-5-yl)phenoxy]-5′-(pyrazin-2-yl)tetrahydro-3′H-spiro[cyclobutane-1,2′-pyrrolo[2,1-b][1,3]oxazol]-3′-one]
6.71 | O=C1N2[C@@H](CC[C@H]2c2cnccn2)OC12CC(OCc1ccccn1)C2 (stereo partly drawn) [Example 20.2, (5′S,7a′R)-5′-(pyrazin-2-yl)-3-[(pyridin-2-yl)methoxy]tetrahydro-3′H-spiro[cyclobutane-1,2′-pyrrolo[2,1-b][1,3]oxazol]-3′-one]
6.50 | O=C1N2[C@@H](CC[C@H]2c2cnccn2)OC12CC(OCC1CCCC1)C2 (single isomer, unassigned) [Example 23.3, (5′S,7a′R)-3-(cyclopentylmethoxy)-5′-(pyrazin-2-yl)tetrahydro-3′H-spiro[cyclobutane-1,2′-pyrrolo[2,1-b]oxazol]-3′-one]
6.84 | O=C1N2[C@@H](CC[C@H]2c2cnccn2)OC12CC(OCc1cccs1)C2 (stereo partly drawn) [Example 22.4, (5′S,7a′R)-5′-(pyrazin-2-yl)-3-(thiophen-2-ylmethoxy)tetrahydro-3′H-spiro[cyclobutane-1,2′-pyrrolo[2,1-b]oxazol]-3′-one]
6.92 | N#Cc1ccc(OC2CCC2)cc1COC1CC2(C1)OC1CC[C@@H](c3cnccn3)N1C2=O (stereo partly drawn) [Example 18.40, 4-(cyclobutyloxy)-2-({[(5′S)-3′-oxo-5′-(pyrazin-2-yl)tetrahydro-3′H-spiro[cyclobutane-1,2′-pyrrolo[2,1-b][1,3]oxazol]-3-yl]oxy}methyl)benzonitrile]
6.69 | Cn1ccc([C@@H]2CC[C@H]3O[C@]4(C[C@@H](Oc5cccc(C#N)c5)C4)C(=O)N32)n1 [Example 19.6, 3-{[(1s,3S,5′S,7a′R)-5′-(1-methyl-1H-pyrazol-3-yl)-3′-oxotetrahydro-3′H-spiro[cyclobutane-1,2′-pyrrolo[2,1-b][1,3]oxazol]-3-yl]oxy}benzonitrile]
6.90 | O=C1N2C(CC[C@H]2c2cnccn2)OC12CC(OCc1cncc(OCCF)c1)C2 (stereo partly drawn) [Example 18.27, (5′S)-3-{[5-(2-fluoroethoxy)pyridin-3-yl]methoxy}-5′-(pyrazin-2-yl)tetrahydro-3′H-spiro[cyclobutane-1,2′-pyrrolo[2,1-b][1,3]oxazol]-3′-one]
6.95 | O=C1N2C(CC[C@H]2c2cnccn2)OC12CC(OCc1ccc3nc(C4CC4)cn3c1)C2 (stereo partly drawn) [Example 18.73, (5′S)-3-[(2-cyclopropylimidazo[1,2-a]pyridin-6-yl)methoxy]-5′-(pyrazin-2-yl)tetrahydro-3′H-spiro[cyclobutane-1,2′-pyrrolo[2,1-b][1,3]oxazol]-3′-one]
6.45 | N#Cc1ccoc1COC1CC2(C1)OC1CC[C@@H](c3cnccn3)N1C2=O (stereo partly drawn) [Example 18.104, 2-({[(5′S)-3′-oxo-5′-(pyrazin-2-yl)tetrahydro-3′H-spiro[cyclobutane-1,2′-pyrrolo[2,1-b][1,3]oxazol]-3-yl]oxy}methyl)furan-3-carbonitrile]
7.55 | O=C1N2C(CC[C@H]2c2cnccn2)OC12CC(OCc1cccc3nccn13)C2 (stereo partly drawn) [Example 18.36, (5′S)-3-[(imidazo[1,2-a]pyridin-5-yl)methoxy]-5′-(pyrazin-2-yl)tetrahydro-3′H-spiro[cyclobutane-1,2′-pyrrolo[2,1-b][1,3]oxazol]-3′-one]
6.19 | O=C1N2[C@@H](CC[C@H]2c2cnccn2)OC12CC(OCC1CCCC1)C2 (single isomer, unassigned) [Example 23.4, (5′S,7a′R)-3-(cyclopentylmethoxy)-5′-(pyrazin-2-yl)tetrahydro-3′H-spiro[cyclobutane-1,2′-pyrrolo[2,1-b]oxazol]-3′-one]
6.97 | O=C1N2[C@H](O[C@]13C[C@@H](OCc1ccccc1)C3)[C@H](O)C[C@H]2c1cnccn1 [Example 21.2, (1s,3S,5′S,7′R,7a′R)-3-(benzyloxy)-7′-hydroxy-5′-(pyrazin-2-yl)tetrahydro-3′H-spiro[cyclobutane-1,2′-pyrrolo[2,1-b]oxazol]-3′-one]
7.18 | CCc1nnc(-c2ccc(COC3CC4(C3)OC3CC[C@@H](c5cnccn5)N3C4=O)cc2)o1 (stereo partly drawn) [Example 18.105, (5′S)-3-{[4-(5-ethyl-1,3,4-oxadiazol-2-yl)phenyl]methoxy}-5′-(pyrazin-2-yl)tetrahydro-3′H-spiro[cyclobutane-1,2′-pyrrolo[2,1-b][1,3]oxazol]-3′-one]
6.77 | N#Cc1ccc(OC2CCC2)cc1COC1CC2(C1)OC1CC[C@@H](c3cnccn3)N1C2=O (stereo partly drawn) [Example 18.88, 4-(cyclobutyloxy)-2-({[(5′S)-3′-oxo-5′-(pyrazin-2-yl)tetrahydro-3′H-spiro[cyclobutane-1,2′-pyrrolo[2,1-b][1,3]oxazol]-3-yl]oxy}methyl)benzonitrile]
